Reference: ChEMBL document CHEMBL4130419, “Novel chemotypes targeting tubulin at the colchicine binding site and unbiasing P-glycoprotein” (Eur J Med Chem, 2017)

Assays:
[1] = Apparent permeability from apical to basolateral side in MDCK2-MDR1 cells at 75 uM after 2 hrs UV-visible spectroscopy; type: ADME, cell-based, Canis lupus familiaris; settings: dog, MDCK-MDR1
[2] = Apparent permeability from basolateral to apical side in MDCK2-MDR1 cells at 75 uM after 2 hrs UV-visible spectroscopy; type: ADME, cell-based, Canis lupus familiaris; settings: dog, MDCK-MDR1
[3] = species: Sus scrofa; assay: Inhibition of tubulin polymerization in porcine brain assessed as disruption of microtubule organization after 1 hr by fluorescence polarization assay
[4] = Efflux ratio of apparent permeability from basolateral to apical over apical to basolateral side in MDCK2-MDR1 cells at 75 uM after 2 hrs by UV-visible spectroscopy; type: ADME, cell-based, Canis lupus familiaris; settings: dog, MDCK-MDR1
[5] = system: HeLa; assay: Antiproliferative activity against human HeLa cells after 72 hrs by MTT assay; type: functional, cell-based
[6] = system: HepG2; assay: Antiproliferative activity against human HepG2 cells after 72 hrs by MTT assay; type: functional, cell-based; settings: HepG2, 72 h
[7] = system: SH-SY5Y; assay: Antiproliferative activity against human SH-SY5Y cells after 72 hrs by MTT assay; type: functional, cell-based
[8] = system: MCF7; assay: Antiproliferative activity against human MCF7 cells after 72 hrs by MTT assay; type: functional, cell-based; settings: MCF7, 72 h

SMILES	Papp A→B at 2 h, 75 µM [1] [×10⁻⁶ cm/s]	Papp B→A at 2 h, 75 µM [2] [×10⁻⁶ cm/s]	inhibition [3]	efflux ratio at 2 h, 75 µM [4]	IC50 [5] [µM]	IC50 [6] [µM]	IC50 [7] [µM]	IC50 [8] [µM]
COc1ccc(-c2cc(C(F)F)n3ncc(C(=O)Nc4cc(Cl)ccc4O)c3n2)cc1	18	21	Dose-dependent effect	1.16	74	> 100	40	2.2
CCCCN1C(=O)c2[nH]nc(-c3ccccc3O)c2C1c1ccc(OCC)cc1 (configuration not stated)	63	55	Dose-dependent effect	0.87	21	18.3	22.5	5.2
CCCSc1nnc(N2C(=O)C(O)=C(C(=O)c3ccco3)C2c2ccccc2F)s1 (configuration not stated)			Dose-dependent effect		55	> 100	10.3	25.2
CCOc1ccc(-n2c(SCC(=O)N3CCOCC3)nnc2-c2cccc(C)c2)cc1			Dose-dependent effect		61.6	> 100	> 100	93
Cc1cccc(-n2nc(C)c3c2NC2=C(C(=O)CC(C)(C)C2)C3c2ccc(O)cc2)c1 (configuration not stated)			Dose-dependent effect		10.7	> 100	70.8	25
Cc1cc(C)c(O)c(-c2n[nH]c3c2C(c2ccccc2)N(CCCO)C3=O)c1 (configuration not stated)			Dose-dependent effect		50.1	48.9	51.3	54
COc1ccc(NS(=O)(=O)c2ccc3c(c2)N(C(C)=O)CC(C)O3)cc1Cl (configuration not stated)			Dose-dependent effect		45.7	77.6	> 100	23
NC(=O)C1CCN(c2nc(CSc3ccccc3)nc3sc4c(c23)CCCC4)CC1	45	82	Dose-dependent effect	1.82	45.7	52.5	11.5	11
CC(=O)Nc1ccc(C2=CC(c3ccc(Cl)cc3Cl)n3nc(CCCO)nc3N2)cc1 (configuration not stated)			Dose-dependent effect		63.1	74.1	61.7	66
COc1cc2c(c(OC)c1OC)-c1ccc(OC)c(=O)cc1[C@@H](NC(C)=O)CC2 [COLCHICINE]						0.042		
CCOC(=O)c1c(NC(=O)C2=C(C)N=C(S)NC2c2ccc(CC)cc2)sc(C)c1C (configuration not stated)			Dose-dependent effect		36.3	> 100	> 100	26
CCOC(=O)c1c(C)[nH]c(C)c1C(=O)CSC1=Nc2ccccc2C2CC=NN12 (configuration not stated)	76	47	Dose-dependent effect	0.62	63.2	14.1	3.7	32
CCC(c1nnc(SCC(=O)c2[nH]c(C)c(C(C)=O)c2C)n1Cc1ccccc1)N(C)C (configuration not stated)			Dose-dependent effect		74.1	96.9	37	10
CCOC(=O)c1c(NC(=O)C2CC(=O)Nc3ccccc32)sc(C)c1C (configuration not stated)			Dose-dependent effect		> 100	> 100	67.5	9
Cc1cccc(-n2ccnc2SCC(=O)c2ccc3c(c2)CCC(=O)N3)c1			Dose-dependent effect		81.7	91.2	67.6	66

Next, values leading:

Papp A→B at 2 h, 75 µM [1] [×10⁻⁶ cm/s]	Papp B→A at 2 h, 75 µM [2] [×10⁻⁶ cm/s]	inhibition [3]	efflux ratio at 2 h, 75 µM [4]	IC50 [5] [µM]	IC50 [6] [µM]	IC50 [7] [µM]	IC50 [8] [µM]	SMILES
39	47	Dose-dependent effect	1.2	44	> 100	11.7	37.1	Cn1cc(SCC(=O)N2N=C(c3cccs3)CC2c2ccc(F)cc2)c2ccccc21 (configuration not stated)
		Dose-dependent effect		95.5	> 100	100	9.2	CCc1cccc(NC(=O)c2cnn3c(C(F)F)cc(-c4ccc(C)cc4)nc23)c1
		Dose-dependent effect		52.5	> 100	> 100	29	O=C(Cn1cc(CNC2(c3ccccc3F)CCCC2)c2ccccc21)NC1CC1
		Dose-dependent effect		54.9	100	38	17.4	CCOC(=O)C1CCCN(C(=O)c2cc(-c3ccc(Cl)cc3)nc3ccccc23)C1 (configuration not stated)
		Dose-dependent effect		45.7	79.4	34.7	66	O=C(CSc1nnc(-c2c[nH]c3ccccc23)n1CC1CCCO1)c1ccc(Cl)s1 (configuration not stated)
		Dose-dependent effect		37.1	63.9	52.5	9	COc1ccc(-n2c(SCC(=O)c3ccc(OC(F)F)cc3)nc3ccccc32)cc1
		Dose-dependent effect		66	> 100	> 100	32	C=CCOc1ccccc1CN(C(=O)CN1CCNC(=O)C1)c1ccc2c(c1)OCO2
22	13	Dose-dependent effect	0.59	16	33.1	12.7	67.2	Cc1cccc(-c2nnc(SCC(=O)c3ccc(O)cc3O)n2-c2ccccc2)c1
		Dose-dependent effect		19	> 100	66	1.4	COc1ccc(-c2nc3ccccc3c3nnc(SCc4ncc(C)c(OC)c4C)n23)cc1
		Dose-dependent effect		23.9	> 100	43.7	8	Cc1n[nH]c(O)c1C(c1cccc(OCc2ccc(F)cc2)c1)c1c(O)n[nH]c1C
		Dose-dependent effect		36.3	72.4	25.1	5.7	COc1cc2c(=O)c(C(=O)c3ccc(C)c(C)c3)cn(Cc3ccc(F)cc3)c2cc1OC
		Dose-dependent effect		95.5	100	57.5	6	CSc1ccccc1NC(=O)c1cnn2c(C(F)F)cc(-c3ccc(C)cc3)nc12
		Dose-dependent effect		1.6	38.9	0.9	13	Cc1ccc(NC(=O)Cn2c(C(F)(F)F)nc3ccccc32)c(-c2nc(C3CC3)n[nH]2)c1
90	92	Dose-dependent effect	1.02	22.4	32.4	17.4	26	O=C(c1c[nH]c2ccccc12)C(NCc1ccc2c(c1)OCO2)c1ccccc1 (configuration not stated)
		Dose-dependent effect		83	> 100	72.4	68	Cc1ccc(-n2c(SCC(=O)N3CC(=O)Nc4ccccc43)nnc2-c2cccc(C)c2)cc1
		Dose-dependent effect		20.8	35.5	8.7	7	COc1ccc(C2CCCN2CC(=O)Nc2ccccc2-c2ccccc2)cc1 (configuration not stated)
		Dose-dependent effect		15.1	> 100	67.6	7	COc1ccc(C)cc1NC(=O)c1cnn2c(C(F)F)cc(-c3ccc(C)cc3)nc12
